This test has as its target unphosphorylated-BTK kinase domain (UP-BTK), GST-tagged human BTK (389-659aa) (Homo sapiens (Human), UniProt Q06187). As to the kind of experiment: BTK Kinase Lanthascreen Binding Assay. As to conditions: for BTK_I_binding pIC50: compound, 50 nM Tracer 236, 2 nM anti-GST antibody, 60 minutes, pIC50 = negative log of the IC50 in molar. How it is done: BTK Kinase Lanthascreen Binding Assay:
A BTK kinase lanthascreen binding assay monitors compound binding to unphosphorylated-BTK kinase domain (UP-BTK), by competing with a fluorescent labeled tracer. […] Data were analyzed using Xlfit™ version 5.3 from ID Business Solutions (Guildford), Microsoft Excel add-in. pIC50 refers to the negative log of the IC50 in molar.

The record followed here is patent US10934310B2, “Inhibitors of Bruton's tyrosine kinase and method of their use” (JANSSEN PHARMACEUTICA NV, priority 2015, dated 2021).

unphosphorylated-BTK kinase domain (UP-BTK), GST-tagged human BTK (389-659aa), sequence (Q06187 389-659): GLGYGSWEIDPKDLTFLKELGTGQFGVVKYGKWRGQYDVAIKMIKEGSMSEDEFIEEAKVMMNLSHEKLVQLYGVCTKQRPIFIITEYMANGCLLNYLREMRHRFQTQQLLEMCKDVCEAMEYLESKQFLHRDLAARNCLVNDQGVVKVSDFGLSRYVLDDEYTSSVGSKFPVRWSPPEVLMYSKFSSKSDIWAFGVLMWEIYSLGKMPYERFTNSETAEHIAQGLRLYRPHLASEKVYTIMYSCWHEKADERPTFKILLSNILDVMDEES

Consider `Cc1cc(Oc2ccccc2)ccc1N1C(=O)Nc2c(C(=O)N[C@H]3CCCC[C@@H]3N)sc3nccc1c23` [Example 58, N-((1S,2S)-2-Aminocyclohexyl)-5-(2-methyl-4-phenoxyphenyl)-4-oxo-4,5-dihydro-3H-1-thia-3,5,8-triazaacenaphthylene-2-carboxamide], for which the “BTK_I_binding pIC50” value is listed as 5.51. As for `CCC(=O)N[C@@H]1CCC[C@@H]1NC(=O)c1sc2nccc3c2c1NC(=O)N3c1ccc(Oc2ccccc2)cc1C` [Example 59, 5-(2-Methyl-4-phenoxyphenyl)-4-oxo-N-((1S,2R)-2-propionamidocyclopentyl)-4,5-dihydro-3H-1-thia-3,5,8-triazaacenaphthylene-2-carboxamide], the “BTK_I_binding pIC50” value is recorded as 5.46. For `CCC(=O)N[C@H]1CCCC[C@@H]1NC(=O)c1sc2nccc3c2c1NC(=O)N3c1ccc(Oc2ccccc2)cc1C` [Example 60, 5-(2-Methyl-4-phenoxyphenyl)-4-oxo-N-((1S,2S)-2-propionamidocyclohexyl)-4,5-dihydro-3H-1-thia-3,5,8-triazaacenaphthylene-2-carboxamide], the “BTK_I_binding pIC50” value came to 5.40. Turning to `Cc1cc(Oc2ccccc2)ccc1N1C(=O)Nc2c(C(=O)N[C@H]3CCCC[C@@H]3N(C)C)sc3nccc1c23` [Example 62, N-((1S,2S)-2-(Dimethylamino)cyclohexyl)-5-(2-methyl-4-phenoxyphenyl)-4-oxo-4,5-dihydro-3H-1-thia-3,5,8-triazaacenaphthylene-2-carboxamide], the “BTK_I_binding pIC50” value turned out to be 5.29.

With `CNC1CCC(NC(=O)c2sc3nccc4c3c2NC(=O)N4c2ccc(Oc3ccccc3)cc2C)CC1` (centres unmarked) [Example 63, 5-(2-Methyl-4-phenoxyphenyl)-N-(4-(methylamino)cyclohexyl)-4-oxo-4,5-dihydro-3H-1-thia-3,5,8-triazaacenaphthylene-2-carboxamide], the “BTK_I_binding pIC50” value came out at 6.85. Same read-out and setting: in the case of `CC(=O)N[C@H]1CC[C@@H](NC(=O)c2sc3nccc4c3c2NC(=O)N4c2ccc(Oc3ccccc3)cc2C)CC1` [Example 64, N-((1S,4S)-4-Acetamidocyclohexyl)-5-(2-methyl-4-phenoxyphenyl)-4-oxo-4,5-dihydro-3H-1-thia-3,5,8-triazaacenaphthylene-2-carboxamide] it was 7.28; in that of `CCC(=O)N[C@H]1CC[C@@H](NC(=O)c2sc3nccc4c3c2NC(=O)N4c2ccc(Oc3ccccc3)cc2C)CC1` [Example 65, 5-(2-Methyl-4-phenoxyphenyl)-4-oxo-N-((1S,4S)-4-propionamidocyclohexyl)-4,5-dihydro-3H-1-thia-3,5,8-triazaacenaphthylene-2-carboxamide], 7.20. As for `Cc1cc(Oc2ccccc2)ccc1N1C(=O)Nc2c(C(=O)N[C@H]3CC[C@@H](N(C)C)CC3)sc3nccc1c23` [Example 66, N-((1S,4S)-4-(Dimethylamino)cyclohexyl)-5-(2-methyl-4-phenoxyphenyl)-4-oxo-4,5-dihydro-3H-1-thia-3,5,8-triazaacenaphthylene-2-carboxamide], the “BTK_I_binding pIC50” value is 6.56. Still for that read-out and setting: in the case of `C=CC(=O)N[C@@H]1CC[C@H](NC(=O)c2sc3nccc4c3c2NC(=O)N4c2ccc(Oc3ccccc3)cc2C)C1` [Example 68, N-((1S,3R)-3-acrylamidocyclopentyl)-5-(2-methyl-4-phenoxyphenyl)-4-oxo-4,5-dihydro-3H-1-thia-3,5,8-triazaacenaphthylene-2-carboxamide] it was 7.78. As for `CCC(=O)N[C@@H]1CC[C@H](NC(=O)c2sc3nccc4c3c2NC(=O)N4c2ccc(Oc3ccccc3)cc2C)C1` [Example 69, 5-(2-Methyl-4-phenoxyphenyl)-4-oxo-N-((1S,3R)-3-propionamidocyclopentyl)-4,5-dihydro-3H-1-thia-3,5,8-triazaacenaphthylene-2-carboxamide], the “BTK_I_binding pIC50” value was found to be 7.73. With `CC(=O)N[C@@H]1CC[C@H](NC(=O)c2sc3nccc4c3c2NC(=O)N4c2ccc(Oc3ccccc3)cc2C)C1` [Example 70, N-((1S,3R)-3-Acetamidocyclopentyl)-5-(2-methyl-4-phenoxyphenyl)-4-oxo-4,5-dihydro-3H-1-thia-3,5,8-triazaacenaphthylene-2-carboxamide], the “BTK_I_binding pIC50” value was determined as 7.69. As to `Cc1cc(Oc2ccccc2)ccc1N1C(=O)Nc2c(C(=O)N[C@H]3CC[C@@H](NC(=O)CN(C)C)C3)sc3nccc1c23` [Example 71, N-((1S,3R)-3-(2-(Dimethylamino)acetamido)cyclopentyl)-5-(2-methyl-4-phenoxyphenyl)-4-oxo-4,5-dihydro-3H-1-thia-3,5,8-triazaacenaphthylene-2-carboxamide], the “BTK_I_binding pIC50” value was determined as 7.38. Still for that read-out and setting: in the case of `CNCC(=O)N[C@@H]1CC[C@H](NC(=O)c2sc3nccc4c3c2NC(=O)N4c2ccc(Oc3ccccc3)cc2C)C1` [Example 72, 5-(2-Methyl-4-phenoxyphenyl)-N-((1S,3R)-3-(2-(methylamino)acetamido)cyclopentyl)-4-oxo-4,5-dihydro-3H-1-thia-3,5,8-triazaacenaphthylene-2-carboxamide] it was 7.02; in that of `Cc1cc(Oc2ccccc2)ccc1N1C(=O)Nc2c(C(=O)N[C@H]3CC[C@@H](N(C)C)C3)sc3nccc1c23` [Example 73, N-((1S,3R)-3-(Dimethylamino)cyclopentyl)-5-(2-methyl-4-phenoxyphenyl)-4-oxo-4,5-dihydro-3H-1-thia-3,5,8-triazaacenaphthylene-2-carboxamide], 7.00; in that of `Cc1cc(Oc2ccccc2)ccc1N1C(=O)Nc2c(C(=O)N[C@H]3CC[C@@H](O)C3)sc3nccc1c23` [Example 74, N-((1S,3R)-3-Hydroxycyclopentyl)-5-(2-methyl-4-phenoxyphenyl)-4-oxo-4,5-dihydro-3H-1-thia-3,5,8-triazaacenaphthylene-2-carboxamide], 7.07. The same measure, in the same setting: the same measure for `Cc1cc(Oc2ccccc2)ccc1N1C(=O)Nc2c(C(=O)N[C@H]3CC[C@@H](NC(=O)CN)C3)sc3nccc1c23` [Example 75, N-((1S,3R)-3-(2-Aminoacetamido)cyclopentyl)-5-(2-methyl-4-phenoxyphenyl)-4-oxo-4,5-dihydro-3H-1-thia-3,5,8-triazaacenaphthylene-2-carboxamide]: 7.30. With `Cc1cc(Oc2ccccc2)ccc1N1C(=O)Nc2c(C(=O)N[C@H]3CC[C@@H](N)C3)sc3nccc1c23` [Example 76, N-((1S,3R)-3-Aminocyclopentyl)-5-(2-methyl-4-phenoxyphenyl)-4-oxo-4,5-dihydro-3H-1-thia-3,5,8-triazaacenaphthylene-2-carboxamide], the “BTK_I_binding pIC50” value is 6.88. On the same count and under the same terms, the same measure for `Cc1cc(Oc2ccccc2)ccc1N1C(=O)Nc2c(C(=O)N[C@H]3CC[C@@H](NC(=O)/C=C/CN(C)C)CC3)sc3nccc1c23` [Example 77, N-((1S,4S)-4-((E)-4-(Dimethylamino)but-2-enamido)cyclohexyl)-5-(2-methyl-4-phenoxyphenyl)-4-oxo-4,5-dihydro-3H-1-thia-3,5,8-triazaacenaphthylene-2-carboxamide]: 6.61; for `CNC/C=C/C(=O)N[C@H]1CC[C@@H](NC(=O)c2sc3nccc4c3c2NC(=O)N4c2ccc(Oc3ccccc3)cc2C)CC1` [Example 78, 5-(2-Methyl-4-phenoxyphenyl)-N-((1S,4S)-4-((E)-4-(methylamino)but-2-enamido)cyclohexyl)-4-oxo-4,5-dihydro-3H-1-thia-3,5,8-triazaacenaphthylene-2-carboxamide]: 6.55; for `Cc1cc(Oc2ccccc2)ccc1N1C(=O)Nc2c(C(=O)N[C@H]3CC[C@@H](NC(=O)/C=C/CN)CC3)sc3nccc1c23` [Example 79, N-((1S,4S)-4-((E)-4-Aminobut-2-enamido)cyclohexyl)-5-(2-methyl-4-phenoxyphenyl)-4-oxo-4,5-dihydro-3H-1-thia-3,5,8-triazaacenaphthylene-2-carboxamide]: 6.47. Consider `Cc1cc(Oc2ccccc2)ccc1N1C(=O)Nc2c(C(=O)NC3CCCC3)sc3nccc1c23` [Example 81, N-Cyclopentyl-5-(*S)-(2-methyl-4-phenoxyphenyl)-4-oxo-4,5-dihydro-3H-1-thia-3,5,8-triazaacenaphthylene-2-carboxamide], for which the “BTK_I_binding pIC50” value is 7.03. Same read-out and setting: the same measure for `Cc1cc(Oc2ccccc2)ccc1N1C(=O)Nc2c(C(=O)NC3CCCC3)sc3nccc1c23` [Example 82, N-Cyclopentyl-5-(*R)-(2-methyl-4-phenoxyphenyl)-4-oxo-4,5-dihydro-3H-1-thia-3,5,8-triazaacenaphthylene-2-carboxamide]: 5.35. For the molecule `Cc1cc(Oc2ccccc2)ccc1N1C(=O)Nc2c(C(=O)N[C@H]3CC[C@H](O)CC3)sc3nccc1c23` [Example 86, N-((1R,4R)-4-Hydroxycyclohexyl)-5-(*R)-(2-methyl-4-phenoxyphenyl)-4-oxo-4,5-dihydro-3H-1-thia-3,5,8-triazaacenaphthylene-2-carboxamide], the IC50 (read-out: BTK_I_binding pIC50 (converted)) is 229 nM.

As for `N[C@@H]1CCC[C@H]1NC(=O)c1sc2nccc3c2c1NC(=O)N3c1ccc(Oc2ccccc2)cc1` [Example 91, N-((1R,2R)-2-Aminocyclopentyl)-4-oxo-5-(4-phenoxyphenyl)-4,5-dihydro-3H-1-thia-3,5,8-triazaacenaphthylene-2-carboxamide], the “BTK_I_binding pIC50” value is 7.31. In the case of `N[C@H]1CCC[C@H]1NC(=O)c1sc2nccc3c2c1NC(=O)N3c1ccc(Oc2ccccc2)cc1` [Example 97, N-((1R,2S)-2-Aminocyclopentyl)-4-oxo-5-(4-phenoxyphenyl)-4,5-dihydro-3H-1-thia-3,5,8-triazaacenaphthylene-2-carboxamide], the “BTK_I_binding pIC50” value stood at 7.70. Turning to `N[C@@H]1CCC[C@@H]1NC(=O)c1sc2nccc3c2c1NC(=O)N3c1ccc(Oc2ccccc2)cc1` [Example 98, N-((1S,2R)-2-Aminocyclopentyl)-4-oxo-5-(4-phenoxyphenyl)-4,5-dihydro-3H-1-thia-3,5,8-triazaacenaphthylene-2-carboxamide], the “BTK_I_binding pIC50” value was found to be 6.10.
